The molecules below were run against T1, Thermolysin (Bacillus thermoproteolyticus, UniProt P00800) (assay: Competitive inhibition of thermolysin evaluated using the substrate FAGLA (Sigma); Competitive binding observed).
T1 sequence (P00800 whole entry): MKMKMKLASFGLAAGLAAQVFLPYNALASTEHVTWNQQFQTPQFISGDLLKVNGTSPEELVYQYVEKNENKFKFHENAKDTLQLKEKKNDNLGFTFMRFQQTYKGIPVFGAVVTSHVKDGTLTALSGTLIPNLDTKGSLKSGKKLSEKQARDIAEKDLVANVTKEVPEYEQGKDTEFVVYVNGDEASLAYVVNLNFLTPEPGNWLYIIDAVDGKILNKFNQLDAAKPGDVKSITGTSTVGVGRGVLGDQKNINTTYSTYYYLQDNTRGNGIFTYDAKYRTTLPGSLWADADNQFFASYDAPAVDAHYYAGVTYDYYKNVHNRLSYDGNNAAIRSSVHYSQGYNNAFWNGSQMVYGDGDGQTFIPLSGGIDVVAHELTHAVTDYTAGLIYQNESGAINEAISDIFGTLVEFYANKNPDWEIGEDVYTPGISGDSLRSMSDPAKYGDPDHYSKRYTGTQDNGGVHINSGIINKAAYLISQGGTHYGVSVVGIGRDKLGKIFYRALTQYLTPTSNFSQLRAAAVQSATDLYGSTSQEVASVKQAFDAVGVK

Row | Ki | SMILES
1 | 11 nM | CC(C)C[C@H](CP(=O)(O)CNC(=O)OCc1ccccc1)C(=O)N[C@@H](CC(C)C)C(=O)O
2 | 41 nM | CC(C)C[C@@H](CO)C[Si](CN)(c1ccccc1)c1ccccc1
3 | 41 nM | CC(C)C[C@H](C[Si](O)(O)CNC(=O)CCc1ccccc1)C(=O)N[C@@H](CC(C)C)C(=O)O
